Values of other authors, collected in patent US20090291140A1, “TREATMENT OF DY[…] TRANSDERMAL ADMINISTRATION OF NONSTEROIDAL ANTI-INFLAMMATORY DRUGS” (priority 2008, published 2009).

Target: T1, 5-lipoxygenase (Homo sapiens, UniProt P09917)
T1 sequence (P09917 1-674): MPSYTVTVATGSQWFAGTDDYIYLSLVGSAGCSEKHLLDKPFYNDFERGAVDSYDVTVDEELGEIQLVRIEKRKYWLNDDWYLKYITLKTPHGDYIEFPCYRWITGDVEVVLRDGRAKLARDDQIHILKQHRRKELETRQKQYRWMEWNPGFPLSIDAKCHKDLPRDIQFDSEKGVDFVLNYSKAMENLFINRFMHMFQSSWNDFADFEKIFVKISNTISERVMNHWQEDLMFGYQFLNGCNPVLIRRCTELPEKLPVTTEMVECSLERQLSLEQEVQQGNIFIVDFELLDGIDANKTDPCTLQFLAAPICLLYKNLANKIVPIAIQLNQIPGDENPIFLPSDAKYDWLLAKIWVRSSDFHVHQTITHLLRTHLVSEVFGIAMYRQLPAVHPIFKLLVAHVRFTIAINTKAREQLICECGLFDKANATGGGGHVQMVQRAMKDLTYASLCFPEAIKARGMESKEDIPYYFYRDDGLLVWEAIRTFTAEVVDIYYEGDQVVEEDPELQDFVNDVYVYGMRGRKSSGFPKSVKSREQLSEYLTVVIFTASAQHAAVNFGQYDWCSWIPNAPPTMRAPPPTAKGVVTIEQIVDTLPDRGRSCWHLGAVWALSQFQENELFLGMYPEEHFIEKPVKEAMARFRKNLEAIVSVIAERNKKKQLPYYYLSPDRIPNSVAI
Conditions: in-vitro studies

Cc1ccc(Cl)c(Nc2ccccc2C(=O)O)c1Cl [meclofenamate]
inhibition of the activity of 5-lipoxygenase: inhibit the activity of 5-lipoxygenase
